Measured values as given in patent US20080319043A1, “3,6-Disubstituted Azabicyclo (3.1.0) Hexane Derivatives as Muscarinic Receptor Antagonists” (priority 2005, published 2008).

Key:
[1] = tested on: isolated rat bladder; assay: tissue or blood; settings: read-out: pKb (converted)

melting point [°C]	Structure (SMILES)	Kb [1] [nM]
105 to 108	Cc1cccc(C(O)(C(=O)OCC2C3CNCC32)c2cccc(C)c2)c1 (centres unmarked) [Compound No. 27, 3-Azabicyclo[3.1.0]hex-6-ylmethyl hydroxy[bis(3-methylphenyl)]acetate]	
	Nc1cccc(CN2CC3C(CNC(=O)C(O)(c4ccccc4)C4CCCC4)C3C2)n1 (centres unmarked) [Compound No. 51, N-({3-[(6-Aminopyridin-2-yl)methyl]-3-azabicyclo[3.1.0]hex-6-yl}methyl)-2-cyclopentyl-2-hydroxy-2-phenylacetamide]	2.51 to 39.8
	O=C(NCC1C2CN(Cc3ccc4c(c3)OCO4)CC12)C(O)(c1ccccc1)C1CCCCC1 (centres unmarked) [Compound No. 80, N-{[3-(1,3-Benzodioxol-5-ylmethyl)-3-azabicyclo[3.1.0]hex-6-yl]methyl}-2-cyclohexyl-2-hydroxy-2-phenylacetamide]	2.51 to 39.8
70 to 75	O=C(NCC1C2CNCC21)C(O)(c1ccccc1)c1cccs1 (centres unmarked) [Compound No. 18, N-(3-Azabicyclo[3.1.0]hex-6-ylmethyl)-2-hydroxy-2-phenyl-2-(2-thienyl)acetamide]	
	CC1C2C(CNC(=O)C(O)(c3ccccc3)C3CCCC3)C2CN1Cc1ccccc1 (centres unmarked) [Compound No. 60, N-[(3-Benzyl-2-methyl-3-azabicyclo[3.1.0]hex-6-yl)methyl]-2-cyclopentyl-2-hydroxy-2-phenylacetamide]	2.51 to 39.8
